pIC50: −log10 of the molar value. Read-outs that look alike come from different tables or passages of the source.
What was measured:
Type in all cases: cell-based
MCF7 cells = assay: XTT cytotoxicity, MCF7; details: MCF7, breast adenocarcinoma, non-resistant
Description: (§1) The cytotoxic activity of the novel family was evaluated against various tumor cells, including myeloma cells, acute lymphoblastic leukemia cells, acute monocytic leukemia cells, chronic myelogenous leukemia cells, pancreatic cancer cells, breast cancer cells, uterine sarcoma cells, cervix adenocarcinoma cells, ovary cancer cells, melanoma cells, osteosarcoma cells, prostate cancer cells, lung cancer cells, neuroblastoma cells and colorectal adenocarcinoma cells by XTT assay.

MCF7-VP cells = assay: XTT cytotoxicity, MCF7-VP; details: for IC50 ratio between resistant and non-resistant cells: MCF7-VP / MCF7; for pIC50: MCF7-VP, breast adenocarcinoma, MRP overexpression
Description: as §1

MES-SA cells = assay: XTT cytotoxicity, MES-SA; details: poorly differentiated uterine sarcoma, non-resistant
Description: as §1

MES-SA/DX5 cells = assay: XTT cytotoxicity, MES-SA/DX5; details: for pIC50: MES-SA/DX5, uterine sarcoma, P-gp overexpression; for IC50 ratio between resistant and non-resistant cells: MES-SA/DX5 / MES-SA; for effectiveness in subline overexpressing PgP: MES-SA/DX5 vs MES-SA
Description: as §1

NCI-H69 cells = assay: XTT cytotoxicity, NCI-H69; details: NCI-H69, small cell lung carcinoma, non-resistant
Description: as §1

NCI-H69 VCR/R cells = assay: XTT cytotoxicity, NCI-H69 VCR/R; details: for IC50 ratio between resistant and non-resistant cells: NCI-H69 VCR/R / NCI-H69; for pIC50: NCI-H69 VCR/R, vincristine resistant
Description: as §1

A2780 cells = assay: XTT cytotoxicity, A2780; details: A2780, ovarian carcinoma, non-resistant
Description: as §1

A2780ADR cells = assay: XTT cytotoxicity, A2780ADR; details: for IC50 ratio between resistant and non-resistant cells: A2780ADR / A2780; for pIC50: A2780ADR, ovarian carcinoma, resistant
Description: as §1

RPMI 8226 cells = assay: XTT cytotoxicity, RPMI 8226; details: RPMI 8226, multiple myeloma, non-resistant, read-out: IC50
Description: as §1

RPMI-DOX40 cells = assay: XTT cytotoxicity, RPMI-DOX40; details: for pIC50: RPMI-DOX40, multiple myeloma, P-gp overexpression, read-out: IC50; for IC50 ratio between resistant and non-resistant cells: RPMI-DOX40 / RPMI 8226
Description: as §1

NALM6 cells = assay: XTT cytotoxicity, NALM6; details: NALM6, acute lymphoblastic leukemia, non-resistant, read-out: IC50
Description: as §1
(§2) Most tubulin-binding anticancer drugs currently used in the clinic are substrates for Pgp effux pump. […] The inventors tested the viability of NALM6 acute lymphoblastic leukemia cell line (ALL) and its corresponding doxorubicin resistant N6/ADR cell line that overexpress Pgp glycoprotein and has cross-resistance to vincristine.

N6/ADR cells = assay: XTT cytotoxicity, N6/ADR; details: for IC50 ratio between resistant and non-resistant cells: N6/ADR / NALM6; for pIC50: N6/ADR, acute lymphoblastic leukemia, P-gp overexpression, read-out: IC50
Description: as §1, §2

RPMI-LR5 cells = assay: XTT cytotoxicity, RPMI-LR5; details: for pIC50: RPMI-LR5, multiple myeloma, melphalan resistant, read-out: IC50; for IC50 ratio between resistant and non-resistant cells: RPMI-LR5 / RPMI 8226
Description: as §1

RPMI-MR20 cells = assay: XTT cytotoxicity, RPMI-MR20; details: for pIC50: RPMI-MR20, mitoxantrone resistant, read-out: IC50; for IC50 ratio between resistant and non-resistant cells: RPMI-MR20 / RPMI 8226
Description: as §1

MM1.S cells = assay: XTT cytotoxicity, MM1.S; details: multiple myeloma, non-resistant, read-out: IC50
Description: as §1

MM1.R cells = assay: XTT cytotoxicity, MM1.R; details: for IC50 ratio between resistant and non-resistant cells: MM1.R / MM1.S; for pIC50: MM1.R, multiple myeloma, dexamethasone resistant, read-out: IC50
Description: as §1

[1] = system: colchicine binding site on tubulin protein; assay: EBI competition assay, RPMI-8226 cells; details: RPMI-8226 living cells
RPMI8226 cells = assay: Cell cycle distribution by flow cytometry; details: 6 hours; IC50, IC50x2.5 and IC50x5 concentrations
Description: Cell cycle arrest is a shared consequence of MTAs treatment. The effects of cell cycle distribution were determined in RPMI8226 cells treated for 6 and 18 hours with a range of concentrations of the molecules. The cells were stained with propidium iodide and cell cycle distribution was measured using a cytoFLEX flow cytometer.

Row | Compound | IC50 ratio between resistant and non-resistant cells (MCF7-VP cells) | IC50 ratio between resistant and non-resistant cells (MES-SA/DX5 cells) | IC50 ratio between resistant and non-resistant cells (NCI-H69 VCR/R cells) | IC50 ratio between resistant and non-resistant cells (A2780ADR cells) | pIC50 (RPMI 8226 cells; Homo sapiens) | pIC50 (RPMI-DOX40 cells) | IC50 ratio between resistant and non-resistant cells (RPMI-DOX40 cells) | pIC50 (NALM6 cells; Homo sapiens, NALM-6) | IC50 ratio between resistant and non-resistant cells (N6/ADR cells) | pIC50 (N6/ADR cells) | pIC50 (MCF7 cells; Homo sapiens) | pIC50 (MCF7-VP cells; Homo sapiens) | pIC50 (MES-SA cells; Homo sapiens) | pIC50 (MES-SA/DX5 cells; Homo sapiens) | effectiveness in subline overexpressing PgP (MES-SA/DX5 cells) | pIC50 (RPMI-LR5 cells) | IC50 ratio between resistant and non-resistant cells (RPMI-LR5 cells) | pIC50 (RPMI-MR20 cells) | IC50 ratio between resistant and non-resistant cells (RPMI-MR20 cells) | prevention of covalent binding of EBI to the colchicine binding site [1] | other results
1 | Epothilone | 2.073 | 3.613 | >11.364 | >370.370 | – | – | – | – | – | – | – | – | – | – | – | – | – | – | – | – | pIC50 (MCF7 cells): 6.66; pIC50 (MCF7-VP cells): 6.34; pIC50 (MES-SA cells): 7.28; pIC50 (MES-SA/DX5 cells): 6.73; pIC50 (NCI-H69 cells): 7.06; pIC50 (NCI-H69 VCR/R cells): < 6.00; pIC50 (A2780 cells): 8.57; pIC50 (A2780ADR cells): < 6.00
2 | CCCOC(=O)c1[nH]c2c(c1C)C(=O)CN(c1ncco1)C2 [SMS294, Propyl 3-methyl-6-(oxazol-2-yl)-4-oxo-4,5,6,7-tetrahydro-1H-pyrrolo[2,3-c]pyridine-2-carboxylate] | – | – | – | – | 6.18 | 5.97 | 1.598 | 6.04 | 2.138 | 5.71 | – | – | – | – | – | – | – | – | – | – | –
3 | CC(=O)O[C@H]1C(=O)[C@@]2(C)[C@H]([C@H](OC(=O)c3ccccc3)[C@]3(O)C[C@H](OC(=O)[C@H](O)[C@@H](NC(=O)c4ccccc4)c4ccccc4)C(C)=C1C3(C)C)[C@]1(OC(C)=O)CO[C@@H]1C[C@@H]2O [Paqlitaxel, paclitaxel] | 0.544 | >9.009 | >16.949 | 61.538 | – | – | – | 8.08 | 2.857 | 7.62 | 6.87 | 7.13 | 6.96 | < 6.00 | less effective in the subline overexpressing PgP | – | – | – | – | – | sensitivity to Pgp glycoprotein overexpression (N6/ADR cells; N6/ADR vs NALM6 dose response): sensitive to PgP; pIC50 (NCI-H69 cells; Homo sapiens): 7.23; pIC50 (NCI-H69 VCR/R cells; Homo sapiens): < 6.00; pIC50 (A2780 cells; Homo sapiens): 8.19; pIC50 (A2780ADR cells; A2780 ADR): 6.40
4 | CCCCCOC(=O)c1[nH]c2c(c1C)C(=O)CC(c1nccs1)C2 (stereo not shown) [SMS213, pentyl-3-methyl-4-oxo-6-(thiazol-2-yl)-4,5,6,7-tetrahydro-1H-indole-2-carboxylate] | 2.114 | 1.158 | – | – | 7.04 | 7.17 | 0.739 | 6.97 | 1.019 | 6.96 | 6.61 | 6.29 | 6.92 | 6.86 | – | 7.22 | 0.652 | 7.10 | 0.859 | – | pIC50 (MM1.S cells; Homo sapiens): 6.91; IC50 ratio between resistant and non-resistant cells (MM1.R cells): 1.185; pIC50 (MM1.R cells; MM.1R): 6.83
5 | COc1cc2c(c(OC)c1OC)-c1ccc(OC)c(=O)cc1[C@@H](NC(C)=O)CC2 [Colchicine] | – | – | – | – | – | – | – | – | – | – | – | – | – | – | less effective in the subline overexpressing PgP | – | – | – | – | – | –
6 | CCC1=C[C@@H]2CN(C1)Cc1c([nH]c3ccccc13)[C@@](C(=O)OC)(c1cc3c(cc1OC)N(C)[C@H]1[C@@](O)(C(=O)OC)[C@H](OC(C)=O)[C@]4(CC)C=CCN5CC[C@]31[C@@H]54)C2 [Vinorelbine] | 1.273 | >15.625 | >45.454 | 300.000 | – | – | – | – | – | – | 7.66 | 7.55 | 7.19 | < 6.00 | less effective in the subline overexpressing PgP | – | – | – | – | – | pIC50 (NCI-H69 cells; Homo sapiens): 7.66; pIC50 (NCI-H69 VCR/R cells; Homo sapiens): < 6.00; pIC50 (A2780 cells; Homo sapiens): 8.05; pIC50 (A2780ADR cells; A2780 ADR): 5.57
7 | CCCCCOC(=O)c1[nH]c2c(c1C)C(=O)CC(c1ccco1)C2 (stereo not shown) [SMS001, reference compound] | 1.340 | 0.241 | – | – | 7.40 | 7.47 | 0.850 | 7.43 | 1.000 | 7.43 | 6.46 | 6.33 | 6.69 | 7.31 | – | 7.54 | 0.725 | 7.46 | 0.875 | prevented the covalent binding of EBI to the colchicine binding site | pIC50 (MM1.S cells; Homo sapiens): 7.20; pIC50 (MM1.R cells; MM.1R): 7.16
8 | CCCCCOC(=O)c1[nH]c2c(c1C)C(=O)CN(c1ccccc1)C2 [SMS078, Pentyl 3-methyl-4-oxo-6-phenyl-4,5,6,7-tetrahydro-1H-pyrrolo[2,3-c]pyridine-2-carboxylate] | – | – | – | – | 6.68 | 6.31 | 2.329 | 6.75 | 0.927 | 6.78 | – | – | – | – | – | – | – | – | – | – | –
9 | Cc1c(C(=O)OCCCCN)[nH]c2c1C(=O)CC(c1ncco1)C2.Cl.Cl (stereo not shown) [SMS088, 4-ami0butyl-3-methyl-6-(oxazol-2-yl)-4-oxo-4,5,6,7-tetrahydro-1H-indole-2-carboxylate dihydrogen chloride] | 1.251 | 2.391 | – | – | – | 5.87 | 0.839 | – | 1.107 | 7.21 | – | – | – | – | – | 5.85 | 0.885 | < 5.74 | >1.116 | prevented the covalent binding of EBI to the colchicine binding site | pIC50 (RPMI 8226 cells): 5.79; pIC50 (MM1.S cells): 5.96; IC50 ratio between resistant and non-resistant cells (MM1.R cells): 0.934; pIC50 (MM1.R cells): 5.99; pIC50 (NALM6 cells): 7.25; pIC50 (MCF7 cells): 5.23; pIC50 (MCF7-VP cells): 5.14; pIC50 (MES-SA cells): 5.66; pIC50 (MES-SA/DX5 cells): 5.28; cell cycle arrest (RPMI8226 cells): cell cycle arrest in G2M phase
10 | CCCOC(=O)c1[nH]c2c(c1C)C(O)CC(c1ncco1)C2 (stereo not shown) [SMS291, propyl-4-hydroxy-3-methyl-6-(oxazol-2-yl)-4,5,6,7-tetrahydro-1H-indole-2-carboxylate] | – | – | – | – | 6.01 | 6.27 | 0.543 | 6.29 | 0.686 | 6.46 | – | – | – | – | – | – | – | – | – | did not prevent the covalent binding of EBI to the colchicine binding site | –
